From ChEMBL document CHEMBL1201862, “PubChem BioAssay data set” (2004)
Activity calls are given as the source filed them. Cut-off read from the data, not from the text of the source, for most assays here: actives have a measured EC50 and inactives only a lower limit.

Experiments:
H4 = assay: Luminescence Cell-Based Dose Response HTS to Identify Activators of 5'UTR Stem-Loop Driven Prion Protein mRNA Translation in H4 Neuroglioblastoma Cells. [Related pubchem assays: 1829 (Project Summary), 1814 (Primary HTS)]; assay type: functional; details: Homo sapiens
[1] = Luminescence Cell-Based Dose Confirmation HTS to Identify Activators of 5'UTR Stem-Loop Driven Alpha-Synuclein mRNA Translation in H4 Neuroglioblastoma Cells. [Related pubchem assays: 1829 (Project Summary), 1814 (Primary HTS)]; assay type: functional
[2] = Luminescence Cell-Based Dose Response HTS to Identify Activators of Luciferase Translation or Activity in H4 […] Cells. [Related pubchem assays: 1829 (Project Summary), 1814 (Primary HTS)]; assay type: functional
[3] = viability of uninfected HEp-2 cells – cell-based, HTS, cytotoxicity control for RSV inhibitor project, dose response (AID 2410); assay type: functional; details: human respiratory syncytial virus
[4] = biological target: T1, Heat shock factor protein 1 (Mus musculus, UniProt P38532); assay: decrease of HSF1-responsive luciferase luminescence – cell-based, NIH3T3, dose retest, confirmation (AID 2382); assay type: functional;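 note: NIH3T3 fibroblasts with HSF1-driven luciferase reporter stressed by proteasome inhibitor MG132; luminescence from HSF1-driven luciferase expression after 8 hours of MG132 stress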
T1 sequence (P38532 whole entry): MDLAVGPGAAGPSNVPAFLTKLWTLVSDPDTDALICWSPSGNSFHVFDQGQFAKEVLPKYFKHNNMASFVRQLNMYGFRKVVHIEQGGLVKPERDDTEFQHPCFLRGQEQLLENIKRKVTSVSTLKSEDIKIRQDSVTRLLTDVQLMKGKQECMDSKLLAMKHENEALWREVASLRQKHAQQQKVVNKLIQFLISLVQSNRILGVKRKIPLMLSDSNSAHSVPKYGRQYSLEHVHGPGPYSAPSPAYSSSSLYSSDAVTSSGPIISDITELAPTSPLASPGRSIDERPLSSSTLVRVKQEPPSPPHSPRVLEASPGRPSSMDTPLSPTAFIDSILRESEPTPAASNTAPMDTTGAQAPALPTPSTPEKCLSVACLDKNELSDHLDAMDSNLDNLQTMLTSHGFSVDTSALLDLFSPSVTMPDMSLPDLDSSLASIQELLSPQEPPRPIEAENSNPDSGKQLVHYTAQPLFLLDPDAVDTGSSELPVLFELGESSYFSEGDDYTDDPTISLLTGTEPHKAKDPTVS

Protein skinhead-1 = biological target: T2, Protein skinhead-1 (Caenorhabditis elegans, UniProt P34707); assay type: functional
T2 sequence (P34707 whole entry): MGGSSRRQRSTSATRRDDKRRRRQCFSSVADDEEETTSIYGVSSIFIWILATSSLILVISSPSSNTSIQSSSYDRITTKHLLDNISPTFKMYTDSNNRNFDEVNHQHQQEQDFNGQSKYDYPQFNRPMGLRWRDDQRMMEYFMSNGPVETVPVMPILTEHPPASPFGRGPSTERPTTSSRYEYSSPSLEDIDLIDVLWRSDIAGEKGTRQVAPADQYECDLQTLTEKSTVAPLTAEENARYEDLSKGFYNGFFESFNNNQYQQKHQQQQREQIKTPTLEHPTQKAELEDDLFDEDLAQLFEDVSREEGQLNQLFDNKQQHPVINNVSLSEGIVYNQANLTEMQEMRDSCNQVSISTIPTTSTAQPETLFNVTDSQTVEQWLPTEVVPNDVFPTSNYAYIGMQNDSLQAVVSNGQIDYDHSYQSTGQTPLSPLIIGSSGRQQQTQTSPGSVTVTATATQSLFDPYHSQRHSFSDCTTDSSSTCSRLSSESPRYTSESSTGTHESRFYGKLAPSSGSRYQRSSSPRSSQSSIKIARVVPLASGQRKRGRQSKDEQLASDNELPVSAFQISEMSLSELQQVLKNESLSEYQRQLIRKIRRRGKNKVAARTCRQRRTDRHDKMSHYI

[5] = Luminescence Cell-Based Dose Retest to Confirm Inhibitors of Cancer Stem Cells. [Related pubchem assays (depositor defined):AID2717, AID2721]; assay type: functional; details: Homo sapiens
[6] = system: Streptococcus sp. 'group A'; assay: Streptococcus pyogenes SK(-)GAS viability under kanamycin – luminescence, BacTiterGlo, confirmation, counter-screen for streptokinase expression inhibitor project, dose response (AID 1900); assay type: functional, organism-based
Streptokinase A = biological target: T3, Streptokinase A (Streptococcus pyogenes serotype M1, UniProt P10520); assay: viability-normalized secreted streptokinase activity reduction – plasminogen activation absorbance, OD405, dose response (AID 1914); assay type: functional, Streptococcus pyogenes M1 GAS;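 note: secreted streptokinase activity via plasminogen activation per viability signal from cell pellet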
T3 sequence (P10520 whole entry): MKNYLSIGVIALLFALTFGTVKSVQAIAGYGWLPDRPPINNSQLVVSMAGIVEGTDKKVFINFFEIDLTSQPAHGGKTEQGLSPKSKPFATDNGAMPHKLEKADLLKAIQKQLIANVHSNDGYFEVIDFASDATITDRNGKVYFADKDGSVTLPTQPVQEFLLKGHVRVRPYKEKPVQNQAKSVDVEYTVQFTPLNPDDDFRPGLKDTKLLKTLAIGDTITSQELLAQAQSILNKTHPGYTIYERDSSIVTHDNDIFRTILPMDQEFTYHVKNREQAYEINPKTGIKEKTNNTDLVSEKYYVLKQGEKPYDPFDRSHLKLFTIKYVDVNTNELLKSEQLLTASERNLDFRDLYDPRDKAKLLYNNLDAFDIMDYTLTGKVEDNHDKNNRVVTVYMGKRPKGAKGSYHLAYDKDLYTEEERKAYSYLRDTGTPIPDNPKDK

Streptococcus = assay: GAS UMAA2166 growth inhibition – luminescence, BacTiterGlo, counter-screen for streptokinase expression inhibitor project, dose response (AID 1915); assay type: functional, organism-based;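 note: potency for reduction of bacterial viability or growth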
INS1 = assay: INS-1E survival protection against cytokine death – cell-based, luminescence, retest, dose response (AID 449756); assay type: functional; details: Rattus norvegicus;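 note: cell death triggered by IL-1 beta plus TNF-alpha plus IFN-gamma mixture; protective hits raise ATP signal compared with cytokine alone wells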
[7] = alpha-synuclein stem-loop luciferase translation blockers – H4 neuroglioma cells, luminescence, confirmation (AID 1988); assay type: functional, cell-based
[8] = luciferase reporter signal suppression in cells – H4 neuroglioma cells, luminescence, dose response (AID 1990); assay type: functional, cell-based
[9] = Luminescence Cell-Based Dose Response HTS to Identify Inhibitors of 5'UTR Stem-Loop Driven Prion Protein mRNA Translation in H4 Neuroglioblastoma Cells. [Related pubchem assays: 1827 (Project Summary), 1813 (Primary HTS)]; assay type: functional
[10] = Trypanosoma cruzi growth suppression in host cells – NIH3T3 host cells, beta-gal luminescence, confirmation (AID 2044); assay type: functional, cell-based;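 note: intracellular parasites grown in NIH/3T3 mouse fibroblasts as host cells; luminescent beta-galactosidase reporter signal from transgenic T. cruzi replicating inside host cells; inhibitors lower the luminescence signal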
[11] = NIH3T3 cell viability loss – ATP luminescence, mouse fibroblasts, counter-screen, dose response (AID 2010); assay type: functional, cell-based;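 note: cells exposed to compound for about 90 hours before reading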

COc1cc(/C=N/NC(=S)NC2CC3CC2C2C=CCC32)ccc1O (configuration not stated)
EC50 (H4): > 120 µM (not active) | EC50 [1]: > 120 µM (not active) | EC50 [2]: 69.7 µM (active)

COc1ccc(O)c(/C=N/Nc2nc(C)cc(-c3ccccc3)n2)c1
CC50 [3]: 18.1 µM (active)

CC(C)(C)c1ccc(NC(=O)c2c(F)cccc2Cl)cc1
CC50 [3]: 43.5 µM (active)

CCOc1ccc(C(=O)OCC(=O)c2c(N)n(C)c(=O)n(C)c2=O)cc1OCC
EC50 (H4): 46.7 µM (inconclusive) | EC50 [1]: > 120 µM (not active) | EC50 [2]: > 120 µM (not active)

CC(=O)Nc1ccc(SCC(=O)N2CCN(S(=O)(=O)c3ccccc3)CC2)cc1
EC50 [4]: > 195 µM (not active)

O=C(Cn1nnc2ccccc21)NNC(=S)NC1CCCCC1
EC50 [4]: > 195 µM (not active)

O=C(NC1CCCC1)C1C(c2ccc(C(F)(F)F)cc2)=Nc2ccccc2N1C(=O)c1ccco1 (configuration not stated)
IC50 (Protein skinhead-1): > 100 µM (inactive)

COc1ccc(CC(=O)NCc2ccc3c(c2)cc(C)n3C)cc1
IC50 (Protein skinhead-1): > 100 µM (inactive)

CC(=O)n1cc(-c2ccncc2)c2ccccc21
CC50 [3]: 31.5 µM (active)

Oc1nc(N/N=C/c2ccccc2Br)nnc1-c1ccccc1
CC50 [3]: 30.9 µM (active)

O=C(Nc1ccc(C(O)(C(F)(F)F)C(F)(F)F)cc1)c1ccc(Cl)c([N+](=O)[O-])c1
AC50 [5]: 5.95 µM (active)

O=C(Nc1ccc(Cl)c(Cl)c1)c1ccc2c(c1)OCO2
CC50 [3]: > 50 µM (active)

CCOC(=O)C1=C(c2ccccc2)OC(N)=C(C#N)C1C(C)C (configuration not stated)
EC50 (H4): > 120 µM (not active) | EC50 [1]: > 120 µM (not active) | EC50 [2]: > 120 µM (not active)

NC(=O)CC(NC(=O)Cc1cccc2ccccc12)c1ccc(NC2CC3CCC2C3)c([N+](=O)[O-])c1 (configuration not stated)
CC50 [3]: > 50 µM (active)

CCOC(=O)c1ccc(Nc2[nH]cnc3ncnc2-3)cc1
EC50 [4]: > 195 µM (not active)

Cc1nn(-c2ccccc2)c(C)c1/C=N/n1c(S)nnc1-c1ccc(C(C)(C)C)cc1
EC50 [6]: 3.13 µM (active) | AC50 [5]: 5.78 µM (active) | EC50 (Streptokinase A): > 150 µM (not active) | EC50 (Streptococcus): 5.35 µM (active)

O=C(NNC(=O)c1ccccc1OCc1ccccc1)c1ccccc1O
AC50 (INS1): 2.76 µM (active) | EC50 [7]: 5.27 µM (active) | EC50 [8]: 3.92 µM (active) | EC50 [9]: 11.6 µM (active)

C=CCn1c(-c2ccccc2)ccc(C#N)c1=O
IC50 (Protein skinhead-1): 15.8 µM (active)

COc1ccc(/C(O)=C\C=N\c2cc(C)on2)c(OC)c1
EC50 [4]: > 195 µM (not active)

CC(=O)c1ccc(NC(=O)CCc2c(C)nc3ncnn3c2C)cc1
EC50 (H4): 37.1 µM (active) | EC50 [1]: 73.6 µM (active) | EC50 [2]: 8.11 µM (active)

COc1ccc(N2CCN(c3ccc(NC(=O)NN)cc3)CC2)cc1
EC50 [4]: > 195 µM (not active)

CCc1ccccc1N=C(S)N=C(N)Nc1nc(C)c2cc(C)ccc2n1
EC50 [7]: 29.4 µM (active) | EC50 [8]: > 120 µM (not active) | EC50 [9]: > 120 µM (not active)

CCc1ccc2c(c1)c1nnc(NN)nc1n2C
EC50 [7]: > 120 µM (not active) | EC50 [8]: > 120 µM (not active) | EC50 [9]: > 120 µM (not active)

CC(=O)c1ccc(NC(=O)c2cccc(S(=O)(=O)N3CCN(C)CC3)c2)cc1
EC50 (H4): 20.7 µM (active) | EC50 [1]: 15.5 µM (active) | EC50 [2]: 40.6 µM (active)

O=C(C[C@H]1C[C@H](C(=O)N2CCOCC2)[C@@]2(CCC3CCCC3)c3[nH]c4cc(-c5ccco5)ccc4c3CCN2C1=O)NCc1ccco1
IC50 (Protein skinhead-1): > 100 µM (inactive)

COC(=O)c1ccc(Cn2nnc3c(O)nc(C4CCN(S(=O)(=O)c5ccc(F)cc5)CC4)nc32)cc1
EC50 [4]: > 195 µM (not active)

Cc1ccc(C(=O)N2CCCC(Nc3ccc(F)cc3)C2)cc1C (configuration not stated)
EC50 [4]: > 195 µM (not active)

CCCn1c2ccccc2c2nnc(SCC(=O)Nc3c(C)n(C)n(-c4ccccc4)c3=O)nc21
EC50 [7]: > 120 µM (not active) | EC50 [8]: > 120 µM (not active) | EC50 [9]: > 120 µM (not active)

COc1ccccc1-c1cc(C(=O)N/N=C/c2ccc(C)s2)c2ccccc2n1
CC50 [3]: 32.2 µM (active)

Cc1ccc(NC(=O)Cn2nnc3ccccc32)cc1
EC50 (H4): 111 µM (active) | EC50 [1]: 17.5 µM (active) | EC50 [2]: > 120 µM (not active)

Fc1ccc(-c2nnc(Cc3ccc(Cl)cc3)o2)cc1
IC50 (Protein skinhead-1): 20.2 µM (active)

O=C1Nc2ccccc2/C1=C\c1cccn1-c1ccc(OC(F)(F)F)cc1
EC50 [7]: 15.4 µM (active) | EC50 [8]: 15.7 µM (active) | EC50 [9]: > 120 µM (not active)

O=C(Nc1ccccc1NC(=O)c1csnn1)c1csnn1
EC50 [4]: > 195 µM (not active)

CCN(CC)C(=O)c1sc(NC(=O)Cc2ccc(OC)cc2)c(C#N)c1C
IC50 (Protein skinhead-1): > 100 µM (inactive)

Clc1cc(Cl)c2nc(N3CCCC3)sc2c1
IC50 (Protein skinhead-1): 27.1 µM (active)

Cc1cccc(N(C(=O)c2nsc(Cl)c2Cl)C(C(=O)NC2CCCC2)c2ccc(O)cc2)c1 (configuration not stated)
EC50 (H4): > 120 µM (not active) | EC50 [1]: 0.548 µM (active) | EC50 [2]: 1.09 µM (active)

c1ccc(-c2ccc(-n3ccnc3)cc2)cc1
IC50 (Protein skinhead-1): 6.11 µM (active) | EC50 [10]: > 30 µM (not active) | EC50 [11]: > 30 µM (not active)

CCOC(=O)c1c(C)n(C)c2ccc(OCC(O)Cn3nc(C)c(Br)c3C)cc12 (configuration not stated)
EC50 [6]: 15.6 µM (active) | CC50 [3]: 15.6 µM (active) | EC50 (Streptokinase A): > 150 µM (not active) | EC50 (Streptococcus): 38.1 µM (active)

O=Nc1c(O)n(Cc2ccc(Cl)cc2Cl)c2ccccc12
AC50 [5]: 6.86 µM (active)

Clc1ccc(-c2nnc(SCc3ccon3)o2)c(Cl)c1
IC50 (Protein skinhead-1): 60.2 µM (inactive)

c1ccc(Cc2nnc3sc(-c4cccs4)nn23)cc1
EC50 [4]: > 195 µM (not active)

CCC(C)(C)C(=O)Nc1ncc(S(=O)(=O)c2ccc([N+](=O)[O-])cc2)s1
IC50 (Protein skinhead-1): > 100 µM (inactive)

Clc1ccc(-c2nc(CSc3ccccn3)cs2)cc1
IC50 (Protein skinhead-1): 59.1 µM (inactive)

COc1cccc(/C=C/c2nc(C#N)c(NCC(C)C)o2)c1
AC50 [5]: 2.19 µM (active)
